# Source: US9598384B2, “3-(2-amino-ethyl)-alkylidene)-thiazolidine-2,4-dione and 1-(2-amino-ethyl)-alkylidene-1,3-dihydro-indol-2-one derivatives as selective sphingosine kinase 2 inhibitors” (VIRGINIA COMMONWEALTH UNIVERSITY, priority 2012, dated 2017)
# How the values were obtained:
# [1] = molecular target: SphK1 (Homo sapiens, UniProt Q9NYA1); test: SphK1 activity assay; format: biochemical; settings: relative activity vs no inhibitor; compounds at 10 μM (FIGS. 1, 4, 6)
# Protocol: A) SphK1 and SphK2 activities were measured with 5 μM sphingosine in the absence or presence of the indicated concentrations of K145 or 10 μM DMS. Data are expressed as percentage SphK activity in the absence of inhibitor; B) Effect of K145 (10 μM) on activity of the indicated enzymes was tested by SelectScreen Kinase Profiling from Invitrogen. CaMK11β, Ca2+/calmodulin-dependent protein kinase II; CDK2, cyclin-dependent kinase 2; EGFR, Epidermal Growth Factor Receptor; Fyn, Fyn Kinase (p55); ERK2, extracellular signal-regulated kinase 2; ERK1, extracellular signal-regulated kinase 1; PKA, protein kinase A; PKCα, protein kinase C α; P13K, phosphatidylinositide 3-kinase. Data are expressed as percentage of control activity averaged from 2 independent experiments.
# FIG. 3. SphK2 was incubated with indicated compounds at 10 μM, then the activity of SphK2 was determined. The data shown here is a relative activity of SphK2 compared to control (no inhibitor, column labeled Sph in the Figure). 96047 is a known SpK2 inhibitor. A5, B26, K25 and QLA13 are known compounds [Li et al. (2009) Bioorg Med Chem Lett 19: 6042-6046; Liu et al. (2012) Eur J Med Chem 47: 125-137] and were tested for purposes of comparison. “A” and “B” refer to different batches of a compound. FIG. 4. SphK1 was incubated with indicated compounds at 10 μM, then the activity of SphK1 was determined. The data shown here is a relative activity of SphK1 compared to control (no inhibitor, column labeled Sph in the Figure). 96091 is a known Spk1 inhibitor. A5, B26, K25 and QLA13 are as above for […]. “A” and “B” refer to different batches of a compound.
# FIG. 6. SphK1 was incubated with indicated compounds at 10 μM, then the activity of SphK2 was determined. The data shown here is a relative activity of SphK2 compared to control (no inhibitor).
# [2] = tested on: JC xenograft; test: JC xenografts in syngenic BALB/c mice, i.p.; format: in vivo
# Protocol: FIG. 14A-E. K145 suppresses the growth of JC xenograft in BALB/c mice. BALB/c mice (n=8) with palpable JC xenograft were treated daily with vehicle or K145 (20 mg/kg and 35 mg/kg) for 15 days by i.p. injection.
# Female BALB/c mice (n=12) were injected with 1×10^6 JC cells subcutaneously in the flank, and treatment with the compound produced as described in Example 15 i.e. 3-(2-aminoethyl)-5-[3-(4-butoxyphenyl)-propylidene]-thiazolidine-2,4-dione (Formula III-K145, 20 mg/kg and 35 mg/Kg dosage daily (i.p.) was started seven days after the tumor cell injection and stopped at day […]. Mice were sacrificed at 15 days treatment.
# [3] = tested on: ceramide-1-phosphate (C1P); test: C1P species in U937 cells by ESI-MS/MS; format: cell-based, human; settings: 10 μM, 3 h
# Protocol: (§1) FIG. 16A-E. K145 accumulates and suppresses the S1P level. A and B) U937 cells were treated with K145 at the indicated concentrations for 3 h and the levels of K145 and S1P were measured by ESI-MS/MS. C) HEK293 cells were treated with K145 (10 μM) for 2 h. Lipids were extracted and different chain length species of ceramide were determined by LC-ESI-MS/MS. Numbers indicate chain length followed by the number of double bonds in the fatty acid. Data are averages of triplicate determinations and are expressed as pmol lipid/10^6 cells. D) U937 cells were treated with or without K145 (10 μM) for 3 h and levels of C1P species were determined by ESI-MS/MS. E) U937 cells were treated with FTY720 (1 μM) in the absence or presence of indicated K145 for 3 h, then FTY720-P was measured by ESI-MS/MS. *P<0.05 compared to control.
# (§2) Next we examined whether K145 affects cellular levels of S1P. […] Therefore, we further characterized K145 in U937 cells. […] This might be due to the fact that many enzymes such as SphK1, SphK2, S1P lyase, and S1P phosphatise, not just SphK2, are involved in the regulation of cellular S1P. […] To further confirm its SphK2 selectivity, we then tested the effects of K145 on the phosphorylation of FTY720, a SphK2 specific substrate.
# [4] = tested on: S1P; test: Cellular S1P level in U937 cells by ESI-MS/MS; format: cell-based, human; settings: 10 μM, 3 h
# Protocol: as §1, §2
# [5] = tested on: U937 xenograft; test: U937 xenografts in nude mice, i.p. administration; format: in vivo, BALB/c-nu mice; settings: 15 mg/kg daily i.p.
# Protocol: D) Body weights of mice throughout treatment. Data are expressed as mean value±SD. *P<0.05 compared to control group.
# Female nude mice (BALB/c-nu, n=7) were inoculated with 3×10^7 U937 cells subcutaneously in the right flank. After 7 days of implant of U937 cells, mice were treated daily with Vehicle (control), or Tamibarotene (15 mg/Kg, positive control), or Formula III (K145) (15 mg/Kg) by i.p. administration. Tumor size was measured every other day.
# Sequence of SphK1 (Q9NYA1 whole entry, species assumed): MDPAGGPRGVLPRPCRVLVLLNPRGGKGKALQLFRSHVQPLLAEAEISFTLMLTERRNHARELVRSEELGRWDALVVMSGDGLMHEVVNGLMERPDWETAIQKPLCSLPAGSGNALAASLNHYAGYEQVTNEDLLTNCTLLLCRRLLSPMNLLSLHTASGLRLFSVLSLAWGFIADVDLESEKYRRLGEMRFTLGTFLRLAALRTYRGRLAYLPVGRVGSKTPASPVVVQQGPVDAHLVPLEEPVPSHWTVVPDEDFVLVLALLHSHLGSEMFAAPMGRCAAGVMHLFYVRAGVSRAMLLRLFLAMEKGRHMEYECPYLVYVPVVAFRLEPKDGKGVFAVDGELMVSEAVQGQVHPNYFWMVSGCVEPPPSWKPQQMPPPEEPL
smiles,measurement,setting,value
"CCCCOc1ccc(CC/C=C2\SC(=O)N(CCN)C2=O)cc1 [K145, 3-(2-aminoethyl)-5-[3-(4-butoxyl-phenyl)-propylidene]-thiazolidine-2,4-dione]",inhibition of SphK1 activity (in words),[1],not SphK1
same,S1P level in JC tumor samples,"[2]; 20 mg/kg group vs vehicle, ESI-MS/MS",suppressed
same,K145 level in JC tumor samples,"[2]; 20 mg/kg group, ESI-MS/MS",detected
same,p-ERK and p-Akt levels in tumor samples,"[2]; 20 mg/kg vs vehicle, Western blot",decreased
same,"changes in body weights and major organs (heart, lung, liver, kidney)","[2]; 20 and 35 mg/kg i.p., 15 days",did not observe significant changes
same,tumor weights vs vehicle-treated mice,"[2]; 20 and 35 mg/kg i.p., 15 days",significantly less
same,mean volume of JC tumors smaller than in vehicle-treated mice,"[2]; both doses (20 and 35 mg/kg daily i.p.), after 15 days",> 50%
same,level of ceramide-1-phosphate (C1P),[3],not significantly affected
same,total cellular S1P,[4],caused a decrease
same,TGI (tumor growth inhibition),[5]; 17 days,44.2%
same,body weights of mice,[5]; compared with vehicle,remained the same
